# Source: patent US6479487B1, “6, 9-disubstituted 2-[trans-(4-aminocyclohexyl)amino] purines” (Aventis Pharmaceuticals Inc., priority 1998, dated 2002)
# Values joined by “and” are separate entries in the source; they are usually repeats but may differ in a detail not shown here. Equal entries are not always repeated. Structures can show the parent of a compound that is named as a salt. Where two headings read alike, the source gives them in different places.
# How the values were obtained:
# cdk2/cyclin E = molecular target: T1, cdk2/cyclin E (Homo sapiens, UniProt P24941); experiment: Cyclin-Dependent Kinase 2 Assay (cdk2/cyclin E, GST-Rb substrate); format: biochemical; conditions: recombinant cdk2/cyclin E, 10 μM ATP, 30 min at 30° C., several values in a cell = separate determinations, read-out: CDK-2 Inhibition IC50
# T1 construct: made in house; host or cells: insect cells (baculovirus co-infection)
# Description: Substrate: GST-Rb as described above for cdk4/cyclin D1
# Assay conditions for cdk2/cyclin E were identical to those for cdk4/cyclin D1 including the substrate. The concentration of recombinant cdk2/cyclin E in the assay was 0.1 μg per 100 μl assay. Incubation was for 30 min at 30° C.
# cdk4/cyclin D1 = molecular target: T2, cdk4/cyclin D1 (Homo sapiens, UniProt P11802); experiment: Cyclin-dependent Kinase 4 Assay (cdk4/cyclin D1, GST-Rb substrate); format: biochemical; conditions: cdk4/cyclin D1 insect cell lysate, 10 μM ATP, 30 min at 37° C., several values = separate determinations, read-out: CDK4 Inhibition IC50
# T2 construct: made in house; host or cells: Sf9 insect cells (Bac-to-Bac baculovirus, pFastBac)
# How it was run: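 IC50 against cdk4 measured by scintillation counting of bead-bound GST-Rb (0.5 μg) after filtration and four TNEN washes. Reaction was 30 min at 37 °C in HEPES pH 7.5 buffer with 10 mM MgCl2 and 1 mM EGTA. Enzyme source was 0.1 μg Sf9 lysate coinfected with cdk4 and cyclin D1.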
# MDA-MB-231 = experiment: In vitro tumor cell proliferation, MDA-MB-231; format: cell-based, human; conditions: sulforhodamine B or CyQUANT assay, many values given with an undefined *, read-out: In vitro Tumor Cell Proliferation (IC50, μM) Breast MDA-MB-231
# How it was run: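 Proliferation quantified by SRB staining of TCA-fixed cells after 3 days of drug plus 4 days with replenished drug, following overnight attachment at 37 °C.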
# MDA-MB-435 = experiment: In vitro tumor cell proliferation, MDA-MB-435; format: cell-based; conditions: values given with an undefined *, read-out: In vitro Tumor Cell Proliferation (IC50, μM) Breast MDA-MB-435
# How it was run: (§1)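 Cells seeded overnight at 37° C, then exposed to drug diluted in medium; at 3 days medium and drug replenished for another 4 days. Growth read by sulforhodamine B staining after TCA fixation; alternatively by CyQUANT, with plates frozen at −80° C after 3 days of drug.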
# HT-29 = experiment: In vitro tumor cell proliferation, HT-29; format: cell-based, human; conditions: many values given with an undefined *, read-out: In vitro Tumor Cell Proliferation (IC50, μM) Colon HT-29
# How it was run: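 Growth was quantified either with CyQUANT, plates frozen at −80° C after 3 days of drug, or by sulforhodamine B staining of TCA-fixed cells after 3 days of drug plus 4 days with fresh drug. Trypan blue-excluding HT-29 cells were plated overnight at 37° C before dosing.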
# Colo-205 = experiment: In vitro tumor cell proliferation, Colo-205; format: cell-based; conditions: values given with an undefined *, read-out: In vitro Tumor Cell Proliferation (IC50, μM) Colon Colo-205
# How it was run: as §1
# A549 = experiment: In vitro tumor cell proliferation, A549; format: cell-based, human; conditions: many values given with an undefined *, read-out: In vitro Tumor Cell Proliferation (IC50, μM) Lung A549
# How it was run: as §1
# DMS-114 = experiment: In vitro tumor cell proliferation, DMS-114; format: cell-based, human; conditions: many values given with an undefined *, read-out: In vitro Tumor Cell Proliferation (IC50, μM) Lung DMS-114
# How it was run: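 Human small cell lung carcinoma DMS-114 cells plated overnight, then drug-treated for 3 days, medium and drug renewed, and incubated 4 more days. Growth read by sulforhodamine B staining after TCA fixation; alternatively by CyQUANT after 3 days' drug exposure and freezing at −80 °C.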
# PC-3 = experiment: In vitro tumor cell proliferation, PC-3; format: cell-based, human; conditions: many values given with an undefined *, read-out: In vitro Tumor Cell Proliferation (IC50, μM) Prostate PC-3
# How it was run: as §1
# DU145 = experiment: In vitro tumor cell proliferation, DU145; format: cell-based, human; conditions: many values given with an undefined *, read-out: In vitro Tumor Cell Proliferation (IC50, μM) Prostate DU145
# How it was run: as §1
# [1] = Homo sapiens, MDA-MB-231, MDA-MB-231
# [2] = Homo sapiens, MDA-MB-435, MDA-MB-435
# [3] = Homo sapiens, COLO 205, Colo-205
# T2 sequence (P11802 whole entry): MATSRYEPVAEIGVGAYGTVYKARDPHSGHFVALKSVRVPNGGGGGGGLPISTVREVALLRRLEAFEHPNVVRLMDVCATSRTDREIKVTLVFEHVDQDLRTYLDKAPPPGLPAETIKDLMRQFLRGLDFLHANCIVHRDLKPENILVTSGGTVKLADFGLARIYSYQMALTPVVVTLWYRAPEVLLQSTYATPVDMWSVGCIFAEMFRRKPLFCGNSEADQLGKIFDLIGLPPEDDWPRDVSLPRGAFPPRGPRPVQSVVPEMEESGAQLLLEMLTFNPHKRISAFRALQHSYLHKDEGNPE
# T2 sequence (P24385 whole entry partner): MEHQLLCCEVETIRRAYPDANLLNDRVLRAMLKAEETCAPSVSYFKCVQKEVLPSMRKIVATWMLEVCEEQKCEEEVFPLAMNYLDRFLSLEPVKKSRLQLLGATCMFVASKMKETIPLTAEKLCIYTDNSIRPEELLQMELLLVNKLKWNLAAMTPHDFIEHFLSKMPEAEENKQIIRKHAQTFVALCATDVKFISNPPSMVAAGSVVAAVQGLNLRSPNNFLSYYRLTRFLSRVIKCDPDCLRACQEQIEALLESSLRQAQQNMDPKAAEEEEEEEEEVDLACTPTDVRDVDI
IC50 (cdk2/cyclin E),IC50 (cdk4/cyclin D1),IC50 (MDA-MB-231; [1]) [µM],IC50 (MDA-MB-231; MDA-MB-231),IC50 (MDA-MB-435; [2]) [µM],IC50 (MDA-MB-435; MDA-MB-435),IC50 (HT-29; HT-29),"IC50 (HT-29; Homo sapiens, HT-29, HT-29) [µM]",IC50 (Colo-205; [3]) [µM],IC50 (A549; A549),"IC50 (A549; Homo sapiens, A549, A549) [µM]",IC50 (DMS-114; DMS-114),"IC50 (DMS-114; Homo sapiens, DMS-114, DMS-114) [µM]","IC50 (PC-3; Homo sapiens, PC-3, PC-3) [µM]",IC50 (PC-3; PC-3),IC50 (DU145; DU145),"IC50 (DU145; Homo sapiens, DU-145, DU145) [µM]",IC50 (Colo-205; Colo-205),Structure (SMILES),also measured
200 nM and 150 nM,1000 nM and 1200 nM and 2000 nM,0.24,0.3 µM,0.37,0.44 µM,0.28 µM,0.25,0.19,0.14 µM,0.16,0.2 µM,0.27,0.21,0.34 µM,0.23 µM,0.22,,"N[C@H]1CC[C@H](Nc2nc(NC3CCN(Cc4cccc(Cl)c4)CC3)c3ncn(C4CCCC4)c3n2)CC1 [Example 42, 2-[Trans-(4-aminocyclohexyl)amino]-6-[4-(1-(3-chlorobenzyl))piperidinylamino]-9-cyclopentylpurine]",
230 nM and 130 nM and 340 nM,2300 nM,0.2,0.22 µM,0.24,0.27 µM,,0.22,0.16,0.09 µM,0.15,0.21 µM,0.28,0.16,0.22 µM,,0.16,0.17 µM,"Cc1ccccc1CN1CCC(Nc2nc(N[C@H]3CC[C@H](N)CC3)nc3c2ncn3C2CCCC2)CC1 [Example 44, 2-[Trans-(4-aminocyclohexyl)amino]-6-[4-(1-(2-methylbenzyl))piperidinylamino]-9-cyclopentylpurine]",
1100 nM and 900 nM,6700 nM,0.89,0.71 µM,0.96,0.75 µM,0.55 µM,0.71,0.53,0.32 µM,0.46,0.71 µM,1.3,0.63,0.74 µM,0.46 µM,0.51,0.48 µM,"N[C@H]1CC[C@H](Nc2nc(NC3CCN(Cc4c(Cl)cccc4Cl)CC3)c3ncn(C4CCCC4)c3n2)CC1 [Example 45, 2-[Trans-(4-aminocyclohexyl)amino]-6-[4-(1-(2,6-dichlorobenzyl))piperidinylamino]-9-cyclopentylpurine]",
50 nM,1500 nM and 1600 nM,3,,3.3,,,3.4,1.7,,4.4,,4.6,1.9,,,3.9,,"N[C@H]1CC[C@H](Nc2nc(N[C@H]3CC[C@H](O)CC3)c3ncn(C4CCCC4)c3n2)CC1 [Example 145a, Trans-2-[Trans-(4-aminocyclohexyl)amino]-6-[(4-hydroxy)cyclohexylamino]-9-cyclopentylpurine dihydrochloride]","IC50 (MDA-MB-231; MDA-MB-231, dihydrochloride): 2.9 µM; IC50 (MDA-MB-435; MDA-MB-435, dihydrochloride): 3.8 µM; IC50 (HT-29; HT-29, dihydrochloride): 2.3 µM; IC50 (Colo-205; Colo-205, dihydrochloride): 1.6 µM; IC50 (A549; A549, dihydrochloride): 4.8 µM; IC50 (DMS-114; DMS-114, dihydrochloride): 3.1 µM; IC50 (PC-3; PC-3, dihydrochloride): 2.1 µM; IC50 (DU145; DU145, dihydrochloride): 3.8 µM"
164 nM,1600 nM and 810 nM and 500 nM,,,,,,16,12,,12,,,11,,,12,,"N[C@H]1CC[C@H](Nc2nc(NC3(CO)CCCC3)c3ncn(C4CCCC4)c3n2)CC1 [Example 146, (R,S)-2-[Trans-(4-aminocyclohexyl)amino]-6-[(1-hydroxymethyl)cyclopentylamino]-9-cyclopentylpurine dihydrochloride]","IC50 (MDA-MB-231; MDA-MB-231, dihydrochloride): 12 µM; IC50 (MDA-MB-435; MDA-MB-435, dihydrochloride): 21 µM; IC50 (HT-29; HT-29, dihydrochloride): 11 µM; IC50 (DMS-114; DMS-114, dihydrochloride): 11 µM; IC50 (PC-3; PC-3, dihydrochloride): 10 µM; IC50 (DU145; DU145, dihydrochloride): 16 µM"
410 nM and 97 nM and 440 nM,2900 nM and 2100 nM,0.35,,0.42,,,0.32,0.2,,0.17,,0.32,0.24,,,0.22,,"N[C@H]1CC[C@H](Nc2nc(NC3CCN(Cc4cccc5ccccc45)CC3)c3ncn(C4CCCC4)c3n2)CC1 [Example 147-a, 2-[Trans-(4-aminocyclohexyl)amino]-6-[4-[1-(1-naphthyl)methyl]piperidinylamino)-9-cyclopentylpurine trihydrochloride]","IC50 (MDA-MB-231; MDA-MB-231, trihydrochloride): 0.34 µM; IC50 (MDA-MB-435; MDA-MB-435, trihydrochloride): 0.408 µM; IC50 (DMS-114; DMS-114, trihydrochloride): 0.33 µM; IC50 (PC-3; PC-3, trihydrochloride): 0.34 µM; IC50 (DU145; DU145, trihydrochloride): 0.33 µM"

Structure (SMILES),IC50 (cdk2/cyclin E),IC50 (cdk4/cyclin D1),IC50 (MDA-MB-231; [1]) [µM],IC50 (MDA-MB-231; MDA-MB-231),IC50 (MDA-MB-435; [2]) [µM],IC50 (MDA-MB-435; MDA-MB-435),IC50 (HT-29; HT-29),"IC50 (HT-29; Homo sapiens, HT-29, HT-29) [µM]",IC50 (Colo-205; [3]) [µM],IC50 (A549; A549),"IC50 (A549; Homo sapiens, A549, A549) [µM]",IC50 (DMS-114; DMS-114),"IC50 (DMS-114; Homo sapiens, DMS-114, DMS-114) [µM]","IC50 (PC-3; Homo sapiens, PC-3, PC-3) [µM]",IC50 (PC-3; PC-3),IC50 (DU145; DU145),"IC50 (DU145; Homo sapiens, DU-145, DU145) [µM]",IC50 (Colo-205; Colo-205),also measured
"N[C@H]1CC[C@H](Nc2nc(NC3CCN(Cc4ccc(C(F)(F)F)cc4)CC3)c3ncn(C4CCCC4)c3n2)CC1 [Example 46, 2-[Trans-(4-aminocyclohexyl)amino]-6-[4-(1-(4-trifluoromethylbenzyl))piperidinylamino]-9-cyclopentylpurine]",500 nM and 450 nM,20000 nM,,0.46 µM and 0.53 µM,,0.61 µM and 0.62 µM,0.53 µM and 0.44 µM,,,0.28 µM and 0.33 µM,,0.35 µM and 0.58 µM,,,0.39 µM and 0.46 µM,0.36 µM and 0.49 µM,,0.44 µM and 0.46 µM,
